Experiment: Acyl group migration (rearrangement) of pro-drug in DMSO-d6/buffer solution monitored by 19F-NMR
Type: physicochemical
Experimental: A compound of formula (I) OR (X) (5 mg) is dissolved in DMSO-d6 (500 μL) and either pH 4 buffer solution (500 μL, potassium hydrogen phthalate buffer) or pH 7 buffer solution (500 μL, sodium and potassium phosphate buffer) is added. The sample is then heated to 40° C. The O-acyl or N-acyl to N-terminal N-acyl migration is monitored by observing the change in chemical shift for the aromatic fluorines using ^19F-NMR. (Fluorine shifts associated with the desired migration were confirmed by spiking with authentic analogue). The sample is analyzed by ^19F-NMR at approxiamately 0, 1.5, 3, 24, 48, and 144 hours. The amount of O-acyl pro-drug, N-acyl pro-drug, and desired migration product at each time point are assigned by integrating the corresponding NMR signal.
N˜1˜-[(2R,3S)-3-amino-4-(3,5-difluorophenyl)-2-hydroxybutyl]-5-(1,3-oxazol-2-yl)-N˜3˜,N˜3˜-dipropyl-N˜1˜-[3-(trifluoromethyl)benzyl]isophthalamide hydrochloride (PREPARATION 7, 5 mg) is dissolved in DMSO-d6 (500 μL) and pH 4 buffer solution (500 μL, potassium hydrogen phthalate buffer) is added. The sample is then heated to 40° C. The N-acyl to N-terminal N-acyl migration is monitored by observing the change in chemical shift for the aromatic fluorines using ^19F-NMR. (Fluorine shifts for the desired migration product in the presence of buffer was confirmed by spiking with authentic migration product, N^1-((1S,2R)-1-(3,5-difluorobenzyl)-2-hydroxy-3-{[3-(trifluoromethyl)benzyl]amino}propyl)-5-(1,3-oxazol-2-yl)-N^3,N^3-dipropylisophthalamide.) NMR data is collected at 0, 1, 3, 25, 48, 96, and 144 hours. The amount of N-acyl pro-drug and desired migration product present at each time point is assigned by integrating the corresponding NMR signal.
The following examples illustrate the solution acyl group migration of compounds of the formulae (I) and (X) as observed by ^19F NMR spectroscopy. Data were collected as described in Example 1, above.

SMILES | HEA product (% present) (pH 4, 40° C., time 0 hr) | N-acyl prodrug (% present) (pH 4, 40° C., time 0 hr) | O-acyl pro-drug (% present) (pH 4, 40° C., time 0 hr) | HEA product (% present) (pH 4, 40° C., time 3 hr) | N-acyl prodrug (% present) (pH 4, 40° C., time 3 hr) | O-acyl pro-drug (% present) (pH 4, 40° C., time 3 hr) | HEA product (% present) (pH 4, 40° C., time 24 hr) | N-acyl prodrug (% present) (pH 4, 40° C., time 24 hr) | O-acyl pro-drug (% present) (pH 4, 40° C., time 24 hr) | HEA product (% present) (pH 4, 40° C., time 48 hr) | N-acyl prodrug (% present) (pH 4, 40° C., time 48 hr) | O-acyl pro-drug (% present) (pH 4, 40° C., time 48 hr) | HEA product (% present) (pH 7, 40° C., time 0 hr) | N-acyl prodrug (% present) (pH 7, 40° C., time 0 hr) | O-acyl pro-drug (% present) (pH 7, 40° C., time 0 hr) | HEA product (% present) (pH 7, 40° C., time 24 hr) | N-acyl prodrug (% present) (pH 7, 40° C., time 24 hr) | O-acyl pro-drug (% present) (pH 7, 40° C., time 24 hr) | HEA product (% present) (pH 7, 40° C., time 48 hr) | N-acyl prodrug (% present) (pH 7, 40° C., time 48 hr) | also measured
CCCN(CCC)C(=O)c1cc(C(=O)N(Cc2cccc(C(F)(F)F)c2)C[C@@H](O)[C@@H](N)Cc2cc(F)cc(F)c2)cc(-c2ncco2)c1.Cl [Preparation 20, N^1-[(2R,3S)-3-amino-4-(3,5-difluorophenyl)-2-hydroxybutyl]-5-(1,3-oxazol-2-yl)-N^3,N^3-dipropyl-N^1-[3-(trifluoromethyl)benzyl]-isophthalamide hydrochloride] | 0% | 100% | 0% | 4% | 96% | 0% | 7% | 93% | 0% | 8% | 92% | 0% | 0% | 100% | 0% | 51% | 49% | 0% | 73% | 27% | HEA product (% present) (pH 4, 40° C., time 1 hr): 3%; N-acyl prodrug (% present) (pH 4, 40° C., time 1 hr): 97%; O-acyl pro-drug (% present) (pH 4, 40° C., time 1 hr): 0%; HEA product (% present) (pH 4, 40° C., time 96 hr): 12%; N-acyl prodrug (% present) (pH 4, 40° C., time 96 hr): 88%; O-acyl pro-drug (% present) (pH 4, 40° C., time 96 hr): 0%; HEA product (% present) (pH 7, 40° C., time 1 hr): 7%; N-acyl prodrug (% present) (pH 7, 40° C., time 1 hr): 93%; O-acyl pro-drug (% present) (pH 7, 40° C., time 1 hr): 0%; HEA product (% present) (pH 7, 40° C., time 3 hr): 12%; N-acyl prodrug (% present) (pH 7, 40° C., time 3 hr): 88%; O-acyl pro-drug (% present) (pH 7, 40° C., time 3 hr): 0%; O-acyl pro-drug (% present) (pH 7, 40° C., time 48 hr): 0%; HEA product (% present) (pH 7, 40° C., time 96 hr): 88%; N-acyl prodrug (% present) (pH 7, 40° C., time 96 hr): 12%; O-acyl pro-drug (% present) (pH 7, 40° C., time 96 hr): 0%
CCCN(CCC)C(=O)c1cc(C(=O)O[C@H](CNCc2cccc(CC)c2)[C@@H](N)Cc2cc(F)cc(F)c2)cc(-c2ncco2)c1.Cl.Cl [Preparation 16, (1R,2S)-2-amino-3-(3,5-difluorophenyl)-1-{[(3-ethylbenzyl)amino]methyl}propyl 3-[(dispropylamino)carbonyl]-5-(1,3-oxazol-2-yl)benzoate dihydrochloride] | 0% | 0% | 100% | 76% | 15% | 9% | 88% | 12% | 0% | 88% | 12% | 0% | 0% | 0% | 100% | 62% | 38% | 0% | 71% | 29% | HEA product (% present) (pH 4, 40° C., time 1.5 hr): 54%; N-acyl prodrug (% present) (pH 4, 40° C., time 1.5 hr): 13%; O-acyl pro-drug (% present) (pH 4, 40° C., time 1.5 hr): 33%; HEA product (% present) (pH 4, 40° C., time 144 hr): 91%; N-acyl prodrug (% present) (pH 4, 40° C., time 144 hr): 9%; O-acyl pro-drug (% present) (pH 4, 40° C., time 144 hr): 0%; HEA product (% present) (pH 7, 40° C., time 1.5 hr): 48%; N-acyl prodrug (% present) (pH 7, 40° C., time 1.5 hr): 52%; O-acyl pro-drug (% present) (pH 7, 40° C., time 1.5 hr): 0%; HEA product (% present) (pH 7, 40° C., time 7 hr): 54%; N-acyl prodrug (% present) (pH 7, 40° C., time 7 hr): 46%; O-acyl pro-drug (% present) (pH 7, 40° C., time 7 hr): 0%; O-acyl pro-drug (% present) (pH 7, 40° C., time 48 hr): 0%; HEA product (% present) (pH 7, 40° C., time 144 hr): 85%; N-acyl prodrug (% present) (pH 7, 40° C., time 144 hr): 15%; O-acyl pro-drug (% present) (pH 7, 40° C., time 144 hr): 0%
